# Source: ChEMBL document CHEMBL4602643, “Anti-inflammatory activities of isopimara-8(14),-15-diene diterpenoids and mode of action of kaempulchraols P and Q from Kaempferia pulchra rhizomes” (Bioorg Med Chem Lett, 2020)
# Calls of active or inactive are those of the source. The rule behind the calls is not given here.
# What was measured:
# RAW264.7 [1] = experiment: Anti-inflammatory activity in mouse RAW264.7 cells assessed as inhibition of LPS-induced NO production at 5 uM relative to control; assay type: functional
# RAW264.7 [2] = experiment: Anti-inflammatory activity in mouse RAW264.7 cells assessed as inhibition of LPS-induced NO production at 50 uM relative to control; assay type: functional
# RAW264.7 [3] = experiment: Inhibition of NF-kappaB activation in mouse RAW264.7 cells expressing luciferase gene at 5 to 25 uM by luciferase reporter gene assay; assay type: cell-based
# RAW264.7 [4] = experiment: Cytotoxicity against mouse RAW264.7 cells expressing luciferase reporter gene assessed as cell survival at 5 to 25 uM; assay type: cell-based; settings: raw264.7, 25 µM
# RAW264.7 [5] = experiment: Anti-inflammatory activity in mouse RAW264.7 cells assessed as inhibition of LPS-induced NO production at 10 uM relative to control; assay type: functional
# [6] = Cytotoxicity against mouse RAW264.7 cells assessed as cell survival at 10 uM; assay type: cell-based; settings: read-out: Activity
# [7] = Cytotoxicity against mouse RAW264.7 cells assessed as cell survival at 50 uM; assay type: cell-based; settings: read-out: Activity
# RAW264.7 [8] = experiment: Inhibition of LPS-induced IL-6 production in mouse RAW264.7 cells at 25 uM by ELISA; assay type: functional, cell-based
# [9] = Cytotoxicity against mouse RAW264.7 cells assessed as cell survival at 100 uM; assay type: cell-based; settings: read-out: Activity
# [10] = Cytotoxicity against mouse RAW264.7 cells assessed as cell survival at 5 uM; assay type: cell-based; settings: read-out: Activity
# RAW264.7 [11] = experiment: Anti-inflammatory activity in mouse RAW264.7 cells assessed as inhibition of LPS-induced NO production at 100 uM relative to control; assay type: functional
# RAW264.7 [12] = experiment: Inhibition of LPS-induced NF-kappaB activation in mouse RAW264.7 cells expressing luciferase gene at 5 to 25 uM by luciferase reporter gene assay; assay type: cell-based
# RAW264.7 [13] = experiment: Anti-inflammatory activity in mouse RAW264.7 cells assessed as inhibition of LPS-induced NO production; assay type: functional, cell-based
# RAW264.7 [14] = experiment: Antiinflammatory activity in mouse RAW264.7 cells assessed as inhibition of LPS-induced COX2 expression at 25 uM incubated for 24 hrs by Western blot analysis; assay type: functional, cell-based
smiles,measurement,setting,value
C=C[C@]1(C)C=C2C[C@@H](O)[C@H]3C(C)(C)CC[C@H](OC(C)=O)[C@]3(C)[C@H]2CC1,inhibition at 5 µM,RAW264.7 [1],15.2%
same,inhibition at 50 µM,RAW264.7 [2],71.6%
same,inhibition,RAW264.7 [3],Active
same,Activity,RAW264.7 [4],Non-Toxic
same,inhibition at 10 µM,RAW264.7 [5],9.55%
same,viability at 10 µM,[6],111%
same,viability at 50 µM,[7],60.3%
same,inhibition,RAW264.7 [8],Active
same,viability at 100 µM,[9],3.39%
same,viability at 5 µM,[10],106%
same,inhibition at 100 µM,RAW264.7 [11],81.8%
same,inhibition,RAW264.7 [12],Active
same,IC50,RAW264.7 [13],36.1 µM
same,inhibition,RAW264.7 [14],Active
